Counter-ions that a name gives are not always drawn.

Data set [1] addresses GSK3alpha (Homo sapiens, UniProt P49840). Briefly: GSK3alpha assay (same as the GSK3beta assay, 0.25 ng/μl GSK3alpha). The conditions noted are these: ranges of pIC50 (−log IC50 (M)), 1 μM ATP, read-out: GSK3a pIC50 (converted). The format is biochemical. Here is the method: (§1) GSK3beta assays were performed at room temperature in a 100 μl reaction volume of 25 mM Tris (pH 7.4) containing 10 mM MgCl2.6H2O, 1 mM DTI, 0.1 mgiml BSA, 5% glycerol and containing 5.7 ng/μl GSK3β, 5 μM biotinylated phosphorylated CREB peptide, 1 μM ATP, 0.85 μCi/ml ATP-P^33 and a suitable amount of a test compound of formula (I). After one hour, the reaction was terminated by adding 70 μl of Stop mix (0.1 mM ATP, 5 mg/ml streptavidin coated PVT SPA bead pH 11.0). The beads to which the phosphorylated CREB peptide is attached were allowed to settle overnight and the radioactivity of the beads was counted in a microtiterplate scintillation counter and compared with the results obtained in a control experiment (without the presence of a test compound) in order to determine the percentage of GSK3β inhibition. The IC50 value, i.e. the concentration (M) of the test compound at which 50% of GSK3β is inhibited, was calculated from the dose response curve obtained by performing the above-described GSK3β assay in the presence of different amounts of the test compound.
The GSK3alpha assay was performed in the same way as described above for the GSK3beta assay except for the concentration of GSK3alpha which is 0.25 ng/μl.

Data set [2] concerns the target GSK3β (Homo sapiens, UniProt P49841). Briefly: GSK3beta assay (SPA, biotinylated phosphorylated CREB peptide, ATP-P33). It counts as biochemical. The conditions noted are these: ranges of pIC50 (−log IC50 (M)); 1 μM ATP, room temperature, one hour; read-out: GSK3b pIC50 (converted). How it is done:
as §1

GSK3alpha, sequence (P49840 whole entry, species assumed): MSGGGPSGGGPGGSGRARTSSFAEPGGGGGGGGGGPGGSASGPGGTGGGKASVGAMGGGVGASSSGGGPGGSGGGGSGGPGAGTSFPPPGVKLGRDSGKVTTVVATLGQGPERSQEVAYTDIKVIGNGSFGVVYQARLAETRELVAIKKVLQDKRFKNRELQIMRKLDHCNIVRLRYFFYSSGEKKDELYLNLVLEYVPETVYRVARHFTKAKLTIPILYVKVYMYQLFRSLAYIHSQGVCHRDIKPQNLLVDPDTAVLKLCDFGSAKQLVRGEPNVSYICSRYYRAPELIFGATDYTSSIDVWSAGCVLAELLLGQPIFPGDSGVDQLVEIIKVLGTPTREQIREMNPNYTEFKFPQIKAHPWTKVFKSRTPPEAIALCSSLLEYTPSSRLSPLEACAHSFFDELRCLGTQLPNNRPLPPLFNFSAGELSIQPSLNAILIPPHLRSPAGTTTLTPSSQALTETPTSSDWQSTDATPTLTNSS
GSK3β, sequence (P49841 whole entry, species assumed): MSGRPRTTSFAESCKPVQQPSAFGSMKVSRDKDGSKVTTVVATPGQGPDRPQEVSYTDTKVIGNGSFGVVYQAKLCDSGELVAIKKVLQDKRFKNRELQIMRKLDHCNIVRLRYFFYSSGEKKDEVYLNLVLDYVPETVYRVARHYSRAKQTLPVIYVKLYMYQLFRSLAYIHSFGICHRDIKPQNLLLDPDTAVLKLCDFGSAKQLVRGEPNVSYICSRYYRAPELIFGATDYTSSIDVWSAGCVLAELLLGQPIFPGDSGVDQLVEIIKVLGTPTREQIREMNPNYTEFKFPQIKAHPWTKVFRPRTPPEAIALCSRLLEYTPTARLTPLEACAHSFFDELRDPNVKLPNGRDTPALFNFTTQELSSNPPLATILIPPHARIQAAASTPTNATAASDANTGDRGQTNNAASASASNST

`CN1CCN(c2cccc(Nc3ncc4nnn(-c5cccc(F)c5)c4n3)c2)CC1` (as salt: HCl) [Compound 36] returned a melting point of more than 250 °C.
Still for that read-out and setting: to `Brc1cccc(-n2nnc3cnc(Nc4cccc(C5=NCNC5)c4)nc32)c1` (as salt: HCl) [Compound 43] belongs more than 260 °C; to `NCc1cccc(-n2nnc3cnc(Nc4cccc(-c5cnco5)c4)nc32)c1` (as salt: HCl) [Compound 114], more than 250 °C.
The compound `O=c1[nH]nc(-c2cccc(Nc3ncc4nnn(-c5cccc(F)c5)c4n3)c2)[nH]1` [Compound 1] registered a melting point of more than 260 °C. Also, the IC50 in data set [1] was less than 1e-08 M. The IC50 in data set [2] was less than 1e-08 M.
For `Fc1cccc(-n2nnc3cnc(Nc4cccc(-c5cnccn5)c4)nc32)c1` [Compound 2], the melting point is more than 260 °C. For the same compound, the IC50 in data set [1] is less than 1e-08 M. Also, the IC50 in data set [2] was less than 1e-08 M.
`CN1CCN(c2ccc(Nc3ncc4nnn(C5CCCCC5)c4n3)cc2)CC1` [Compound 4]: the melting point is 167 °C.
In turn, `O=[N+]([O-])c1cc(Nc2ncc3nnn(C4CCCCC4)c3n2)ccc1N1CCOCC1` [Compound 5] returned a melting point of 161.9 °C. The IC50 in data set [2] is 1e-08 to 1e-07 M.
The compound `Cn1nccc1-c1cccc(Nc2ncc3nnn(-c4ccccc4)c3n2)c1` [Compound 9] came in with a melting point of 216 °C. In addition, the IC50 in data set [1] was less than 1e-08 M. The IC50 in data set [2] was less than 1e-08 M.
Consider `Fc1cccc(-n2nnc3cnc(Nc4cccc(-c5cccnc5)c4)nc32)c1` [Compound 30], for which the melting point is 208 to 212 °C. Further, the IC50 in data set [1] was less than 1e-08 M. For the same compound, in data set [2], the IC50 was less than 1e-08 M.
Compound `N#CCc1cccc(-n2nnc3cnc(Nc4cccc(-c5ccnc(N)n5)c4)nc32)c1` [Compound 87] yielded a melting point of more than 260 °C. The IC50 in data set [1] was less than 1e-08 M. Moreover, in data set [2], the IC50 is less than 1e-08 M.
The compound `CN1CCN(c2ccc(Nc3ncc4nnn(-c5cccc(CC#N)c5)c4n3)cc2)CC1` [Compound 88] gave a melting point of 210 to 212 °C. Moreover, the IC50 in data set [1] was less than 1e-08 M. In data set [2], the IC50 is less than 1e-08 M.
`OCc1cccc(-n2nnc3cnc(Nc4cccc(-c5cnco5)c4)nc32)c1` [Compound 96] came in with a melting point of 210 to 214 °C. Also, the IC50 in data set [1] was less than 1e-08 M. In data set [2], the IC50 is less than 1e-08 M.
In the case of `CC(=O)NCc1cccc(-n2nnc3cnc(Nc4cccc(-c5cnco5)c4)nc32)c1` [Compound 115], the melting point was in the range of 156 to 160 °C. In addition, in data set [1], the IC50 is less than 1e-08 M. Besides, the IC50 in data set [2] was less than 1e-08 M.
The compound `COCC(=O)NCc1cccc(-n2nnc3cnc(Nc4cccc(-c5cnco5)c4)nc32)c1` [Compound 122] gave a melting point of 210 to 214 °C. Also, the IC50 in data set [1] is less than 1e-08 M. In data set [2], the IC50 was less than 1e-08 M.
Regarding `CN1CCN(CCOc2ccc(Nc3ncc4nnn(-c5cccc(F)c5)c4n3)cc2)CC1` [Compound 140], the IC50 in data set [1] was less than 1e-08 M; in data set [2], 1e-08 to 1e-07 M.
In the same order, the values of `Fc1cccc(-n2nnc3cnc(Nc4ccc(OCCN5CCOCC5)cc4)nc32)c1` [Compound 141] are less than 1e-08 M and 1e-08 to 1e-07 M.
In the same order, the values of `Fc1cccc(-n2nnc3cnc(Nc4ccc(OCCCN5CCCCC5)cc4)nc32)c1` [Compound 142] are 1e-08 to 1e-07 M and 1e-08 to 1e-07 M.
In the same order, the values of `CN1CCN(CCCOc2ccc(Nc3ncc4nnn(-c5cccc(F)c5)c4n3)cc2)CC1` [Compound 143] are less than 1e-08 M and 1e-08 to 1e-07 M.
For `Fc1cccc(-n2nnc3cnc(Nc4ccc(OCCCN5CCOCC5)cc4)nc32)c1` [Compound 144], the IC50 is less than 1e-08 M in data set [1] and 1e-08 to 1e-07 M in data set [2].
Regarding `NS(=O)(=O)c1cccc(-n2nnc3cnc(Nc4cccc(-c5cnco5)c4)nc32)c1` [Compound 145], the IC50 in data set [1] and in data set [2] was less than 1e-08 M throughout.
As to `Cn1nnnc1-c1cccc(Nc2ncc3nnn(-c4cccc(S(N)(=O)=O)c4)c3n2)c1` [Compound 146], the IC50 in data set [1] is less than 1e-08 M; in data set [2] it was 1e-08 M.
In the same order, the values of `Nc1nccc(-c2cccc(Nc3ncc4nnn(-c5cccc(S(N)(=O)=O)c5)c4n3)c2)n1` [Compound 147] are less than 1e-08 M and less than 1e-08 M.
As to `Fc1cccc(-n2nnc3cnc(Nc4cccc(-c5ncc[nH]5)c4)nc32)c1` [Compound 149], the IC50 in data set [1] and in data set [2] was less than 1e-08 M in each case.
Regarding `Nc1nccc(-c2cccc(Nc3ncc4nnn(-c5ccccc5)c4n3)c2)n1` [Compound 151], the IC50 in data set [1] and in data set [2] was less than 1e-08 M in each case.
For the compound `Cn1cc(Br)c(-c2cccc(Nc3ncc4nnn(-c5cccc(CCO)c5)c4n3)c2)n1` [Compound 152], the IC50 in data set [1] and in data set [2] was less than 1e-08 M in each case.

(Values after patent US7449465B2, “Triazolopyrimidine derivatives as glycogen synthase kinase 3 inhibitors” (Janssen Pharmaceutica, N.V., priority 2003, dated 2008).)
